Assay results as given in patent publication US20260226049A1, “NITROGEN-CONTAINING HETEROCYCLIC COMPOUND, PREPARATION METHOD THEREFOR, AND USE THEREOF” (BIVISION PHARMACEUTICALS, INC, priority 2023, published 2026).

Tested on: HT1080 cell line with high FAP expression
Experiment: Therapeutic experiment of ^177Lu-labeled compounds in tumor-bearing mice
Format: in vivo, Balb/c Nude mice
Conditions: for T/C / Tumor volume (mm^3) Group administration Day 14 / TGI^TV (%): 0.8 mCi; for T/C / Tumor volume (mm^3) Group administration Day 14: Day 14; for TGI^TV (%): Day 14, relative tumor inhibition rate; for Tumor volume (mm^3) Before administration: baseline, 0.8 mCi group
Procedure: Balb/c Nude tumor-bearing mice (supplier: Shanghai Alamo Pharmaceutical Technology Co., Ltd., HT1080 cell line with high FAP expression) aged approximately 6-8 weeks were randomly assigned to 13 experimental groups based on tumor volume, with 5 mice per group. Animal body weight and tumor size were measured, and administration was initiated on the grouping day starting with Group 1 (control group: normal saline). General health and appearance were observed daily after the start of the experiment. Animal body weight and tumor size were measured before each sample collection time point. Any abnormal observations detected during the entire study period were required to be recorded in the raw data.
The synthesized compounds were labeled with ^177Lu and subsequently utilized in the therapeutic assay on mouse tumor models. […] Furthermore, no significant changes in mouse body weight (FIG. 8) were observed throughout the experimental period.
• TGI^TV: Relative tumor inhibition rate (TGI^TV): TGI^TV (%)=[1−(Ti−T0)/(Vi−V0)]×100%; • (Ti: average tumor volume of the treatment group on day i of administration, TO: average tumor volume of the treatment group on day 0 of administration; Vi: average tumor volume of the solvent control group on day i of administration, V0: average tumor volume of the solvent control group on day 0 of administration) • T/C: T/C % is one of the most commonly used indicators for tumor response to treatment: T/C %=T/C*100%; • (T represents the average tumor volume of the treatment group at a specific time point; C represents the average tumor volume of the control group at a specific time point.)
The differences between the treatment groups (tumor volumes of the second, third, fourth, and fifth groups) and the control group (tumor volume of the first group) and between the tumor volumes of the first, third, fourth, and fifth groups and the tumor volume of the second group were analyzed using the two-way ANOVA Fisher's LSD test method. P-values less than 0.05 were considered statistically significant. Both statistical significance and biological significance were taken into account during the result analysis.

SMILES: N#C[C@@H]1CC(F)(F)CN1C(=O)CNC(=O)c1ccnc2c(NC(=O)CCC(=O)NCCNC(=O)CCC(C(=O)O)N3CCN(CC(=O)O)CCN(CC(=O)O)CCN(CC(=O)O)CC3)cccc12.[177Lu] (some centres unmarked) [^177Lu-OncoFAP-DOTAGA, reference compound]
- T/C: 32.33%
- Tumor volume (mm^3) Group administration Day 14: 844.66 ± 41.70 mm^3
- TGI^TV (%): 69.90%
- Tumor volume (mm^3) Before administration: 137.00 ± 12.07 mm^3

SMILES: N#C[C@@H]1CC(F)(F)CN1C(=O)CNC(=O)c1cccc2c1CCCN2C(=O)CCC(=O)NCCNC(=O)CCC(C(=O)O)N1CCN(CC(=O)O)CCN(CC(=O)O)CCN(CC(=O)O)CC1.[177Lu] (some centres unmarked) [^177Lu-JHH10]
- T/C: 19.38%
- Tumor volume (mm^3) Group administration Day 14: 506.26 ± 26.61 mm^3
- TGI^TV (%): 84.48%
- Tumor volume (mm^3) Before administration: 141.47 ± 12.20 mm^3
